By IC50 is commonly meant the concentration at which inhibition is half-maximal. Low readings indicate inhibition by little substance, high ones a need for much substance.

In assay [1] the target is T1, CETP (cholesteryl ester transfer protein) (Homo sapiens, UniProt P11597).
T1 sequence (P11597 18-493): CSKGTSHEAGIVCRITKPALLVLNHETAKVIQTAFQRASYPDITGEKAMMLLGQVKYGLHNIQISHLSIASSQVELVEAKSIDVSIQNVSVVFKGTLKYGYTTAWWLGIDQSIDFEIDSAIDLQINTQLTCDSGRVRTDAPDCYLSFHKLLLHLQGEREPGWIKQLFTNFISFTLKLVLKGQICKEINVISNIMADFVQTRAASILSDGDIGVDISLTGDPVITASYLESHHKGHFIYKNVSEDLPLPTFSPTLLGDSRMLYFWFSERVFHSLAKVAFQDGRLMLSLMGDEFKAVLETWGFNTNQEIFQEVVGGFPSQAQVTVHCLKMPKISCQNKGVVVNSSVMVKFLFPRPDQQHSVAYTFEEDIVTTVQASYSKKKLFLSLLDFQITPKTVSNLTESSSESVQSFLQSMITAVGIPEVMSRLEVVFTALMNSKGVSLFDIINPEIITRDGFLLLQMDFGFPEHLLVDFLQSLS
As to the kind of experiment: In vitro CETP activity assay in human plasma. Type of assay: biochemical. More on the design: tissue New Drug Development Research Center, Inc; host or cells: human EDTA plasma from healthy men. An excerpt: (1) Preparation of Human Pro-Apolipoprotein Al (pro-apoAl)
The cDNA of human pro-apoAl (NCBI accession number: NM_000039) is cloned from human liver Quick-Clone™ cDNA (Clontech, Calif.) and inserted to a pET28a vector (Novagen, Germany) for bacterial expression. Expressed protein as a fusion protein with 6×His-tag at N-terminus in BL-21 Gold (DE3) (Strategene, Calif.) is purified using HiTrap Chelating (GE Healthcare, Conn.).
(2) Preparation of Donor Microemulsion
Pro-apoAl containing microemulsion as a donor particle is prepared following previous reports (J. Biol. Chem., 280:14918-22). Glyceryl trioleate (62.5 ng, Sigma, Mo.), 3-sn-phosphatidylcholine (583 ng, Wako Pure Chemical Industries, Japan), and cholesteryl BODIPY® FL C12 (250 ng, Invitrogen, Calif.) are dissolved in 1 mL of chloroform. The solution is evaporated, then residual solvent is removed in vacuum for more than 1 hr. The dried lipid mixture is dissolved in 500 μL of the assay buffer (50 mM Tris-HCl (pH7.4) containing 150 mM NaCl and 2 mM EDTA) and sonicated at 50° C. with a microtip (MICROSON™ ULTRASONIC CELL DISRUPTOR, Misonix, Farmingdale, N.Y.) at output power 006 for 2 min. After sonication, the solution is cooled to 40° C., added to 100 μg of human pro-apoAl, and sonicated at output power 004 for 5 min at 40° C. The solution, BODIPY-CE microemulsion as a donor molecule is stored at 4° C. after filtration through a 0.45 μm PVDF filter.
(3) In Vitro CETP Activity Assay in Human Plasma
Human EDTA plasma samples from healthy men are purchased from New Drug Development Research Center, Inc. Donor solution is prepared by a dilution of donor microemulsion with assay buffer. Human plasma (50 μL), assay buffer (35 μL) and test compound dissolved in dimethylsulfoxide (1 μL) are added to each well of 96 well half area black flat bottom plate. The reaction is started by the addition of donor solution (14 μL) into each well. Fluorescence intensities are measured every 30 min at 37° C. with excitation wave length of 485 nm and emission wavelength of 535 nm. The CETP activity (Fl/min) is defined as the changes of fluorescence intensity from 30 to 90 min.

Assay [2] deals with T1, CETP (cholesteryl ester transfer protein). As to the kind of experiment: CETP inhibitory activity, IC50 in buffer. Type of assay: biochemical.

`CCN(CC1CCCC1)c1nc2ccccc2cc1CN(Cc1cc(C(F)(F)F)cc(C(F)(F)F)c1)c1nnn(C)n1` [Example 1, N-[(3-{N′-[3,5-bis(trifluoromethyl)benzyl]-N′-(2-methyl-2H-tetrazol-5-yl)amino}methyl)quinolin-2-yl]-N-(cyclopentylmethyl)ethylamine]: the half-inhibitory concentration (IC50) in assay [1] stood at 0.26 µM; in assay [2], 0.16 µM.
Regarding `CCN(CC1CCCC1)c1nc2cc(C)ccc2cc1CN(Cc1cc(C(F)(F)F)cc(C(F)(F)F)c1)c1nnn(C)n1` [Example 2-6], the IC50 in assay [1] was 0.092 µM; in assay [2], 0.028 µM.
In the same order, the values of `CCN(CC1CCCC1)c1nc2cc(OC)ccc2cc1CN(Cc1cc(C(F)(F)F)cc(C(F)(F)F)c1)c1nnn(C)n1` [Example 2-7] are 0.075 µM and 0.044 µM.
The corresponding values for `CCN(CC1CCCC1)c1nc2cc(F)c(F)cc2cc1CN(Cc1cc(C(F)(F)F)cc(C(F)(F)F)c1)c1nnn(C)n1` [Example 2-8] are 0.024 µM and 0.04 µM.
The corresponding values for `CCN(CC1CCCC1)c1nc2cc(F)c(F)c(F)c2cc1CN(Cc1cc(C(F)(F)F)cc(C(F)(F)F)c1)c1nnn(C)n1` [Example 2-10] are 0.037 µM and 0.036 µM.
Turning to `CCN(CC1CCCCC1)c1nc2ccc(F)cc2cc1CN(Cc1cc(C(F)(F)F)cc(C(F)(F)F)c1)c1nnn(C)n1` [Example 2-12], the values for the IC50 in assay [1] and in assay [2] were 0.094 µM and 0.12 µM, respectively.
Take `CCN(CC1CCCCC1)c1nc2cc(F)ccc2cc1CN(Cc1cc(C(F)(F)F)cc(C(F)(F)F)c1)c1nnn(C)n1` [Example 2-13]: the values for the IC50 in assay [1] and in assay [2] were 0.082 µM and 0.032 µM, respectively.
In the same order, the values of `CCN(CC1CCCCC1)c1nc2cc(F)c(F)cc2cc1CN(Cc1cc(C(F)(F)F)cc(C(F)(F)F)c1)c1nnn(C)n1` [Example 2-15] are 0.062 µM and 0.043 µM.
In the same order, the values of `CCOC(=O)C[C@H]1CC[C@H](CN(CC)c2nc3ccccc3cc2CN(Cc2cc(C(F)(F)F)cc(C(F)(F)F)c2)c2nnn(C)n2)CC1` [Example 2-17] are 0.22 µM and 0.25 µM.
Take `CCN(CC1CCOCC1)c1nc2cc(F)c(F)cc2cc1CN(Cc1cc(C(F)(F)F)cc(C(F)(F)F)c1)c1nnn(C)n1` [Example 2-22]: the IC50 in assay [1] amounted to 0.03 µM; in assay [2] it was 0.16 µM.
In the same order, the values of `Cn1nnc(N(Cc2cc(C(F)(F)F)cc(C(F)(F)F)c2)Cc2cc3ccc(F)cc3nc2N2CCCC2C2CCCCC2)n1` (stereo not shown) [Example 3-2] are 0.043 µM and 0.039 µM.
In the same order, the values of `CCC(CC)[C@H]1CCCN1c1nc2cc(F)c(F)cc2cc1CN(Cc1cc(C(F)(F)F)cc(C(F)(F)F)c1)c1nnn(C)n1` [Example 3-4] are 0.062 µM and 0.06 µM.
For the molecule `CCOC[C@H]1CCCN1c1nc2cc(F)ccc2cc1CN(Cc1cc(C(F)(F)F)cc(C(F)(F)F)c1)c1nnn(C)n1` [Example 3-5], the IC50 in assay [1] was found to be 0.11 µM; in assay [2], 0.12 µM.
The corresponding values for `CCN(CC1CCCC1)c1nc2cc(C#N)ccc2cc1CN(Cc1cc(C(F)(F)F)cc(C(F)(F)F)c1)c1nnn(C)n1` [Example 6, 3-({N-[3,5-bis(trifluoromethyl)benzyl]-N-(2-methyl-2H-tetrazol-5-yl)amino}methyl)-2-[N′-(cyclopentylmethyl)-N′-ethylamino]quinoline-7-carbonitrile] are 0.039 µM and 0.054 µM.
`CCN(CC1CCCC1)c1nc2cc(F)cc(F)c2cc1CN(Cc1cc(C(F)(F)F)cc(C(F)(F)F)c1)c1ncc(N2CCOCC2)cn1` [Example 13-4]: the IC50 was 0.033 µM in assay [1] and 0.0058 µM in assay [2].
As to `Cn1nnc(N(Cc2cc(C(F)(F)F)cc(C(F)(F)F)c2)Cc2cc3cc(F)c(F)cc3nc2N2CCC[C@@H]2[C@H]2CC[C@H](C(=O)O)CC2)n1` [Example 21, trans-4-{(R)-1-[3-({N-[3,5-bis(trifluoromethyl)benzyl]-N-(2-methyl-2H-tetrazol-5-yl)amino}methyl)-6,7-difluoroquinolin-2-yl]pyrrolidin-2-yl}cyclohexanecarboxylic acid], the half-maximal inhibitory concentration (IC50) in assay [1] is 0.045 µM; in assay [2], 0.021 µM.
The corresponding values for `Cn1nnc(N(Cc2cc(C(F)(F)F)cc(C(F)(F)F)c2)Cc2cc3cc(F)c(F)cc3nc2N2CCC[C@@H]2[C@H]2CC[C@H](CC(=O)O)CC2)n1` [Example 28, trans-(4-{(R)-1-[3-({N-[3,5-bis(trifluoromethyl)benzyl]-N-(2-methyl-2H-tetrazol-5-yl)amino}methyl)-6,7-difluoroquinolin-2-yl]pyrrolidin-2-yl}cyclohexyl)acetic acid] are 0.039 µM and 0.025 µM.

Values taken from patent US8232403B2, “Bicyclic derivatives as CETP inhibitors” (Novartis AG, priority 2006, dated 2012).
